Laboratory results from ChEMBL document CHEMBL5608213, “Synthesis of furanotriterpenoids from betulin and evaluation of Tyrosyl-DNA phosphodiesterase 1 (Tdp1) inhibitory properties of new semi-synthetic triterpenoids” (Eur J Med Chem, 2024).

Tests used:
[1] = target: Tyrosyl-DNA phosphodiesterase 1 (Homo sapiens, UniProt Q9NUW8); test: Inhibition of Tdp1 (unknown origin) using 5'-[FAM]AACGTCAGGGTCTTCC[BHQ1]-3' as substrate measured every 55 sec by fluorescence based analysis
HepG2 = test: Cytotoxicity against human HepG2 cells incubated for 72 hrs by MTT assay; assay type: functional
PC-3 = test: Cytotoxicity against human PC-3 cells incubated for 72 hrs by MTT assay; assay type: functional
MDA-MB-453 = test: Cytotoxicity against human MDA-MB-453 cells incubated for 72 hrs by MTT assay; assay type: functional
MDA-MB-231 = test: Cytotoxicity against human MDA-MB-231 cells incubated for 72 hrs by MTT assay; assay type: functional
RD = test: Cytotoxicity against human RD cells incubated for 72 hrs by MTT assay; assay type: functional
[2] = Cytotoxicity against human Mel-MS cells incubated for 72 hrs by MTT assay; assay type: functional
[3] = Cytotoxicity against HEK293 cells incubated for 72 hrs by MTT assay; assay type: toxicity, cell-based; settings: human
[4] = Cytotoxicity against human MCF-10A cells incubated for 72 hrs by MTT assay; assay type: toxicity, cell-based
A549 = test: Cytotoxicity against human A549 cells incubated for 72 hrs by MTT assay; assay type: functional
MCF7 = test: Cytotoxicity against human MCF7 cells incubated for 72 hrs by MTT assay; assay type: functional
[5] = Cytotoxicity against human HeLa-V cells incubated for 72 hrs by MTT assay; assay type: functional
HCT-116 = test: Cytotoxicity against human HCT-116 cells incubated for 72 hrs by MTT assay; assay type: functional
[6] = Cytotoxicity against human HeLa-V cells assessed as reduction in cell viability incubated for 72 hrs in presence of 0.5 uM topotecan by MTT assay; assay type: functional
[7] = Cytotoxicity against human HeLa-V cells assessed as cell viability at <=12.5 uM incubated for 72 hrs in presence of 0.5 uM topotecan by MTT assay relative to control; assay type: functional; settings: up to 12.5 µM
[8] = Sensitization of topotecan-induced cytotoxicity against human HeLa-V cells assessed as reduction in cell viability by measuring fold change in topotecan CC50 at 10 uM incubated for 72 hrs by MTT assay relative to topotecan alone; assay type: functional

Chain of Tyrosyl-DNA phosphodiesterase 1 (Q9NUW8 whole entry): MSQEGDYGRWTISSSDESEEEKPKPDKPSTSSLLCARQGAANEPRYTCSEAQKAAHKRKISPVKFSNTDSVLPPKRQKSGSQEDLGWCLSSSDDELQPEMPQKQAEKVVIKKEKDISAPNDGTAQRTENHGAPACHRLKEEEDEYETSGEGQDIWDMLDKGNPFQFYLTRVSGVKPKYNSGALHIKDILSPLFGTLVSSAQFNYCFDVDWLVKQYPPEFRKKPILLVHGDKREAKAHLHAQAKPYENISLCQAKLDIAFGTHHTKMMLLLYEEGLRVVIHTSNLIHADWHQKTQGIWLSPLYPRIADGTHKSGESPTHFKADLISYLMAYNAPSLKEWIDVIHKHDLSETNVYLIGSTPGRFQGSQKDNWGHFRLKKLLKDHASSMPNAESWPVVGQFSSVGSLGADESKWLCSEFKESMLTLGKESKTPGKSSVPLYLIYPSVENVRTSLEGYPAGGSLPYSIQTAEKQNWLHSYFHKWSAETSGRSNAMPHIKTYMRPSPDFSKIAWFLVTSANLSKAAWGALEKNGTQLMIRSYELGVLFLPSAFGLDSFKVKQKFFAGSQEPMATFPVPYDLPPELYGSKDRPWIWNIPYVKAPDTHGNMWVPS

| IC50 [1] [µM] | SMILES | CC50 (HepG2) [µM] | CC50 (PC-3) [µM] | CC50 (MDA-MB-453) [µM] | CC50 (MDA-MB-231) [µM] | CC50 (RD) [µM] | CC50 [2] [µM] | CC50 at 72 h [3] [µM] | CC50 at 72 h [4] [µM] | CC50 (A549) [µM] | CC50 (MCF7) [µM] | CC50 [5] [µM] | CC50 (HCT-116) [µM] | CC50 [6] [µM] | Activity [7] [%] | fold change (FC) [8] |
| --- | --- | --- | --- | --- | --- | --- | --- | --- | --- | --- | --- | --- | --- | --- | --- | --- |
| 12.1 | CC(C)[C@@H]1CC[C@]2(COC(=O)c3ccccc3)CC[C@]3(C)[C@H](CC[C@@H]4[C@@]5(C)O[C@H](CC#N)C(C)(C)[C@@H]5CC[C@]43C)[C@@H]12 | > 100 | > 100 | > 100 | > 100 | > 100 | > 100 | > 100 | > 100 | > 100 | > 100 | > 100 | > 100 | – | – | – |
| 3 | CC(C)[C@@H]1CC[C@]2(COC(=O)c3ccccc3)CC[C@]3(C)[C@H](CC[C@@H]4[C@@]5(C)C(=O)[C@H]6O[C@H]6C(C)(C)[C@@H]5CC[C@]43C)[C@@H]12 | > 100 | > 100 | > 100 | > 100 | > 100 | > 100 | > 100 | > 100 | > 100 | > 100 | > 100 | > 100 | – | – | – |
| 9 | CC(C)[C@@H]1CC[C@]2(COC(=O)c3ccccc3)CC[C@]3(C)[C@H](CC[C@@H]4[C@@]5(C)[C@@H](O)C=CC(C)(C)[C@@H]5CC[C@]43C)[C@@H]12 | > 100 | > 100 | > 100 | > 100 | > 100 | > 100 | > 100 | > 100 | > 100 | > 100 | > 100 | > 100 | – | – | – |
| 5.1 | CC(C)[C@@H]1CC[C@]2(COC(=O)c3ccccc3)CC[C@]3(C)[C@H](CC[C@@H]4[C@@]5(C)[C@@H](O)[C@H]6O[C@H]6C(C)(C)[C@@H]5CC[C@]43C)[C@@H]12 | > 100 | > 100 | > 100 | > 100 | > 100 | > 100 | > 100 | > 100 | > 100 | > 100 | > 100 | > 100 | – | – | – |
| 8 | C=C1[C@H]2CC[C@@H]3[C@H]4[C@H](C(C)C)CC[C@]4(COC(=O)c4ccccc4)CC[C@@]3(C)[C@]2(C)CC[C@@H]1C(C)(C)[C@@H]1O[C@H]1C#N | > 100 | > 100 | > 100 | > 100 | > 100 | > 100 | > 100 | > 100 | > 100 | > 100 | > 100 | > 100 | – | – | – |
| 2.9 | CC(C)[C@@H]1CC[C@]2(COC(=O)c3ccccc3)CC[C@]3(C)[C@H](CC[C@@H]4[C@@]5(C)/C(=N/O)C[C@@H](O)C(C)(C)[C@@H]5CC[C@]43C)[C@@H]12 | > 100 | > 100 | > 100 | > 100 | > 100 | > 100 | > 100 | > 100 | 57.7 | > 100 | > 100 | > 100 | – | – | – |
| 2 | CC(C)[C@@H]1CC[C@]2(COC(=O)c3ccccc3)CC[C@]3(C)[C@H](CC[C@@H]4[C@@]5(C)/C(=N/O)[C@H]6O[C@H]6C(C)(C)[C@@H]5CC[C@]43C)[C@@H]12 | > 100 | 62.2 | > 100 | > 100 | > 100 | > 100 | > 100 | > 100 | > 100 | > 100 | 28 | > 100 | 13.1 | – | – |
| 2.9 | CC(C)[C@@H]1CC[C@]2(CO)CC[C@]3(C)[C@H](CC[C@@H]4[C@@]5(C)/C(=N/O)C[C@@H](O)C(C)(C)[C@@H]5CC[C@]43C)[C@@H]12 | > 100 | > 100 | > 100 | > 100 | > 100 | > 100 | > 100 | > 100 | > 100 | > 100 | > 100 | 57.4 | – | – | – |
| > 100 | CC(C)[C@@H]1CC[C@]2(COC(=O)c3ccccc3)CC[C@]3(C)[C@H](CC[C@@H]4[C@@]5(C)CC=CC(C)(C)[C@@H]5CC[C@]43C)[C@@H]12 | > 100 | > 100 | > 100 | > 100 | > 100 | > 100 | > 100 | > 100 | > 100 | > 100 | > 100 | > 100 | – | – | – |
| – | CC(C)[C@@H]1CC[C@]2(COC(=O)c3ccccc3)CC[C@]3(C)[C@H](CC[C@@H]4[C@@]5(C)CC[C@H](O)C(C)(C)[C@@H]5CC[C@]43C)[C@@H]12 | > 100 | > 100 | > 100 | > 100 | > 100 | > 100 | > 100 | > 100 | > 100 | > 100 | > 100 | > 100 | – | – | – |
| 1.97 | C=C1[C@H](C(C)(C)[C@@H](O)CC#N)CC[C@]2(C)[C@@H]1CC[C@@H]1[C@H]3[C@H](C(C)C)CC[C@]3(COC(=O)c3ccccc3)CC[C@]12C | > 100 | > 100 | > 100 | > 100 | > 100 | > 100 | > 100 | > 100 | > 100 | > 100 | > 100 | > 100 | ≤ 35.1 | ~80 | <1.5 |
| 7 | CC(C)[C@@H]1CC[C@]2(COC(=O)c3ccccc3)CC[C@]3(C)[C@H](CC[C@@H]4[C@@]5(C)OC(CC#N)C(C)(C)[C@@H]5CC[C@]43C)[C@@H]12 (mixture of isomers) | > 100 | > 100 | > 100 | > 100 | > 100 | > 100 | > 100 | > 100 | 58.6 | > 100 | > 100 | > 100 | – | – | – |
| – | COc1cccc2c1C(=O)c1c(O)c3c(c(O)c1C2=O)C[C@@](O)(C(=O)CO)C[C@@H]3O[C@H]1C[C@H](N)[C@H](O)[C@H](C)O1 [DOXORUBICIN] | 1.8 | 12.6 | 0.04 | 0.34 | 1.3 | 1.3 | 0.4 | 0.5 | 2 | 0.4 | 2.67 | 1.3 | – | – | – |
| – | CC[C@@]1(O)C(=O)OCc2c1cc1n(c2=O)Cc2cc3c(CN(C)C)c(O)ccc3nc2-1 [TOPOTECAN] | – | – | – | – | – | – | – | – | – | – | 0.456 | – | – | – | – |

| SMILES | IC50 [1] [µM] | CC50 (HepG2) [µM] | CC50 (PC-3) [µM] | CC50 (MDA-MB-453) [µM] | CC50 (MDA-MB-231) [µM] | CC50 (RD) [µM] | CC50 [2] [µM] | CC50 at 72 h [3] [µM] | CC50 at 72 h [4] [µM] | CC50 (A549) [µM] | CC50 (MCF7) [µM] | CC50 [5] [µM] | CC50 (HCT-116) [µM] | CC50 [6] [µM] | Activity [7] [%] | fold change (FC) [8] |
| --- | --- | --- | --- | --- | --- | --- | --- | --- | --- | --- | --- | --- | --- | --- | --- | --- |
| CC1(C)CC[C@]23CC[C@]4(C)[C@H](CC[C@@H]5[C@@]6(C)O[C@@H](CC#N)C(C)(C)[C@@H]6CC[C@]54C)[C@H]2[C@H]1OC3 | 8 | – | – | – | – | – | – | – | – | – | – | – | – | – | – | – |
| CC1(C)CC[C@]23CC[C@]4(C)C(CC[C@@H]5C(=O)C(C(C)(C)[C@H](CC#N)OC(=O)Cl)CC[C@]54C)[C@H]2[C@H]1OC3 (some centres not stated) | > 100 | > 100 | > 100 | > 100 | > 100 | > 100 | > 100 | > 100 | > 100 | > 100 | > 100 | > 100 | > 100 | – | – | – |
| CC1(C)CC[C@]23CC[C@]4(C)[C@H](CC[C@@H]5[C@@]6(C)O[C@H](CC#N)C(C)(C)[C@@H]6CC[C@]54C)[C@H]2[C@H]1OC3 | 3.59 | > 100 | > 100 | > 100 | > 100 | > 100 | > 100 | > 100 | > 100 | 34 | 84.9 | > 100 | 90.3 | – | – | – |
| CC(C)[C@@H]1CC[C@]2(COCc3ccccc3)CC[C@]3(C)[C@H](CC[C@@H]4C(=O)C(C(C)(C)[C@H](CC#N)OC(=O)Cl)CC[C@]43C)[C@@H]12 (some centres not stated) | 12 | > 100 | > 100 | > 100 | > 100 | > 100 | > 100 | > 100 | > 100 | 56.9 | > 100 | > 100 | > 100 | – | – | – |
| CC(C)[C@@H]1CC[C@]2(CO)CC[C@]3(C)[C@H](CC[C@@H]4[C@@]5(C)O[C@H](CC#N)C(C)(C)[C@@H]5CC[C@]43C)[C@@H]12 | 1 | > 200 | > 100 | > 100 | > 100 | 79 | > 100 | > 100 | > 100 | 89.9 | 39.2 | 31.6 | > 100 | 14.8 | ~80 | – |
